Test results published in ChEMBL document CHEMBL1201862, “PubChem BioAssay data set” (2004).
Active and inactive are the calls of the source.

What was measured:
[1] = target: Cytochrome P450 2C19 (Homo sapiens, UniProt P33261); assay: Cytochrome panel assay with activity outcomes. Panel member name: p450-cyp2c19 Compounds with AC50 equal or less than 10 uM are considered active; assay type: functional; details: read-out: AC50
[2] = target: Sphingosine 1-phosphate receptor 2 (Homo sapiens, UniProt O95136); assay: Dose Response Cell Based Assay for Antagonists of the S1P2 Receptor. [Related pubchem assays: 856, 736 ]; assay type: functional
Sequence of Sphingosine 1-phosphate receptor 2 (O95136 whole entry): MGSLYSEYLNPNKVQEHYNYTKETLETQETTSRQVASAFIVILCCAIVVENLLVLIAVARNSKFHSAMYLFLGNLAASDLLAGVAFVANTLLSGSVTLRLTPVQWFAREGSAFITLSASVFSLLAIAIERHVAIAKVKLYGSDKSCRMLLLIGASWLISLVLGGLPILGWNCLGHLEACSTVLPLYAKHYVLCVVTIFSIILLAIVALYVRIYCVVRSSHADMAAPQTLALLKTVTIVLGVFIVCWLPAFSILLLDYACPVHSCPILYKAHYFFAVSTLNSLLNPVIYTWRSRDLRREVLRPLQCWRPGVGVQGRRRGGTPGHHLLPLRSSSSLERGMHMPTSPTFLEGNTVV

[3] = target: Cytochrome P450 2C9 (Homo sapiens, UniProt P11712)
Sequence of Cytochrome P450 2C9 (P11712 whole entry): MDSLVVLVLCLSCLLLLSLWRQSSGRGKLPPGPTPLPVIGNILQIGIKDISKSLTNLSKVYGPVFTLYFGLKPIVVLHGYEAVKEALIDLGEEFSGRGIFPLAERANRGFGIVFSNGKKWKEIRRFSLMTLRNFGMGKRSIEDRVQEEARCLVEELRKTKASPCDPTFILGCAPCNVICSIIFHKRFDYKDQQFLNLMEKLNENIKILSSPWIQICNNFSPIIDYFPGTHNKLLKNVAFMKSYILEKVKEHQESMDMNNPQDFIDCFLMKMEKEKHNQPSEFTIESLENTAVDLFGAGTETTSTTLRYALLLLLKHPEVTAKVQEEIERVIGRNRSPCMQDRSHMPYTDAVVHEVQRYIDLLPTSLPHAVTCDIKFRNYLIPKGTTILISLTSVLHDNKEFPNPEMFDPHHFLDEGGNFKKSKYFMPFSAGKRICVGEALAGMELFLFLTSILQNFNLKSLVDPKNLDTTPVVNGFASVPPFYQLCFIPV

[4] = target: Mitogen-activated protein kinase 10 (Homo sapiens, UniProt P53779); assay: Dose response biochemical screening assay for inhibitors of c-Jun N-Terminal Kinase 3 (JNK3). [Related pubchem assays: 746 ]
Sequence of Mitogen-activated protein kinase 10 (P53779 whole entry): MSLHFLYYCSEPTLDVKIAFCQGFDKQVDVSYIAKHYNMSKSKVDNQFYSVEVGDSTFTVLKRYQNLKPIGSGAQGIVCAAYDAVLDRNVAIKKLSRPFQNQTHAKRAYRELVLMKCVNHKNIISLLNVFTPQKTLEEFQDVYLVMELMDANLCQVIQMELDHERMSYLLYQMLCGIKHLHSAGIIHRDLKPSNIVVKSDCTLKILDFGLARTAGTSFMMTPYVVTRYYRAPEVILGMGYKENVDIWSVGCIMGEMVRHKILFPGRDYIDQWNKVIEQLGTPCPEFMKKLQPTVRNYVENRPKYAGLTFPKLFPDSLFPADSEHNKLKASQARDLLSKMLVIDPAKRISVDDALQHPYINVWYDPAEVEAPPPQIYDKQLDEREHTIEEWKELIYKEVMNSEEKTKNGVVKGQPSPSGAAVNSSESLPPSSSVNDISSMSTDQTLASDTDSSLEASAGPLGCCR

[5] = Dose-response inhibition of insulin secretion in a rat insulinoma line at 5 mM glucose (AID 1117331); assay type: functional, cell-based; details: INS-1E
[6] = target: T1, Corticotropin-releasing factor receptor 2/Corticotropin-releasing factor-binding protein (Homo sapiens, UniProt P24387+Q13324); assay: activators of CRF receptor 2 with binding protein – uHTS hits, confirmation (AID 602473); assay type: functional; details: read-out: EC50_Mean
T1 sequence (Q13324 whole entry): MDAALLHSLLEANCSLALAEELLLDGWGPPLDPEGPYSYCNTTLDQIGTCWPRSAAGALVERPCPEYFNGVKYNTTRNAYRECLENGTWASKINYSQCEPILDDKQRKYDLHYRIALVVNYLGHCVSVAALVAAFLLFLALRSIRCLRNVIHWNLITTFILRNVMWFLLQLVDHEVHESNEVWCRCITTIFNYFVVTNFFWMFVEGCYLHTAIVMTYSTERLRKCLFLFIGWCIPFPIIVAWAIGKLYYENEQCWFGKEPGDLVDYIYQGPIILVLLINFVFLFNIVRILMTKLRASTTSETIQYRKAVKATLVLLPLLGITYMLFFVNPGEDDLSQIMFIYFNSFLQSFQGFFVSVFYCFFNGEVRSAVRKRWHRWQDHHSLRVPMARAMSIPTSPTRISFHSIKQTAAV
T1 sequence (P24387 whole entry): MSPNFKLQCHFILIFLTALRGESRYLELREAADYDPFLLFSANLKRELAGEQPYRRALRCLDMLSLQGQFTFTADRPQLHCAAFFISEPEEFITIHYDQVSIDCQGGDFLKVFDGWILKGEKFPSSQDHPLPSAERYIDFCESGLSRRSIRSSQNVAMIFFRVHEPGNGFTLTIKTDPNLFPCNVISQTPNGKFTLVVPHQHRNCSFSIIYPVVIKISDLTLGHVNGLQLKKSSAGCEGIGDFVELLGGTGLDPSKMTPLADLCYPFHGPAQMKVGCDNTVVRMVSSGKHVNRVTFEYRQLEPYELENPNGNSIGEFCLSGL

[7] = target: T2, Tyrosine-protein phosphatase non-receptor type 7 (Homo sapiens, UniProt P35236); assay: inhibitors of human HePTP phosphatase, […], biochemical, absorbance, leukemia target (AID 521); assay type: functional
T2 sequence (P35236 whole entry): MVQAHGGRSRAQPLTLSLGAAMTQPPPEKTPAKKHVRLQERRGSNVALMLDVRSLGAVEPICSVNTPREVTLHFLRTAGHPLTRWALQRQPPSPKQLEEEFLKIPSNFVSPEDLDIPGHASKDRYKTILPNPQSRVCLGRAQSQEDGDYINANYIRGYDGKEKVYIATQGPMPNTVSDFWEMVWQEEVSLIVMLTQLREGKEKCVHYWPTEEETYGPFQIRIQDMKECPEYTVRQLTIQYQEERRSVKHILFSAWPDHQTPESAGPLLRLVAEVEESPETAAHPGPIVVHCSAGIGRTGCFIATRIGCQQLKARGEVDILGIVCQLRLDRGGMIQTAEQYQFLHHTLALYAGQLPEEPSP

[8] = target: T3, Estrogen receptor beta (Homo sapiens, UniProt Q92731);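 note: recombinant ER-beta bound to coactivator SRC1 peptide in presence of estradiol agonist; inhibitors block coactivator peptide binding and lower the FRET signal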
T3 sequence (Q92731 whole entry): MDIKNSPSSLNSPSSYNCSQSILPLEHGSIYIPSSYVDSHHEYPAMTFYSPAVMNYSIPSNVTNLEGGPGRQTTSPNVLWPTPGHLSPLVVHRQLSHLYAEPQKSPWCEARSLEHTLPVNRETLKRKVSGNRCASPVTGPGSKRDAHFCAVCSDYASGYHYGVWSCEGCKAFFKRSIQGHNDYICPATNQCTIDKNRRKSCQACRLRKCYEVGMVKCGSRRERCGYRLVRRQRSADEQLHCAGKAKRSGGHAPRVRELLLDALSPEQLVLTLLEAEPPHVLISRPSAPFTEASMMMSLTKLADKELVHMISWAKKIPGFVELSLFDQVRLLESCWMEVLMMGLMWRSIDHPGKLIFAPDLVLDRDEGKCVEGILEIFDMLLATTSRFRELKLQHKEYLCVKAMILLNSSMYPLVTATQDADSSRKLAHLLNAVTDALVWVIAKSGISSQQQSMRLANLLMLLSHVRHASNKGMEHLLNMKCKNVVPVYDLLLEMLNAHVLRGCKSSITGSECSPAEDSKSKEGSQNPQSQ

[9] = C. albicans growth with fluconazole, confirmation, fluorescence, retest (AID 2467); assay type: functional, cell-based
[10] = NIH-3T3 fibroblast cytotoxicity, dose response, cytotoxicity control, cell-based, fluorescence, Alamar Blue, secondary assay (AID 2327); assay type: functional;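 note: NIH-3T3 mouse fibroblasts cultured with fluconazole at 8 µg/mL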
[11] = target: Ephrin type-A receptor 4 (Mus musculus, UniProt Q03137); assay: inhibitors of EphA4 binding to KYL peptide, primary screen, biochemical, colorimetric, mouse EphA4 (AID 689); assay type: functional
Sequence of Ephrin type-A receptor 4 (Q03137 whole entry): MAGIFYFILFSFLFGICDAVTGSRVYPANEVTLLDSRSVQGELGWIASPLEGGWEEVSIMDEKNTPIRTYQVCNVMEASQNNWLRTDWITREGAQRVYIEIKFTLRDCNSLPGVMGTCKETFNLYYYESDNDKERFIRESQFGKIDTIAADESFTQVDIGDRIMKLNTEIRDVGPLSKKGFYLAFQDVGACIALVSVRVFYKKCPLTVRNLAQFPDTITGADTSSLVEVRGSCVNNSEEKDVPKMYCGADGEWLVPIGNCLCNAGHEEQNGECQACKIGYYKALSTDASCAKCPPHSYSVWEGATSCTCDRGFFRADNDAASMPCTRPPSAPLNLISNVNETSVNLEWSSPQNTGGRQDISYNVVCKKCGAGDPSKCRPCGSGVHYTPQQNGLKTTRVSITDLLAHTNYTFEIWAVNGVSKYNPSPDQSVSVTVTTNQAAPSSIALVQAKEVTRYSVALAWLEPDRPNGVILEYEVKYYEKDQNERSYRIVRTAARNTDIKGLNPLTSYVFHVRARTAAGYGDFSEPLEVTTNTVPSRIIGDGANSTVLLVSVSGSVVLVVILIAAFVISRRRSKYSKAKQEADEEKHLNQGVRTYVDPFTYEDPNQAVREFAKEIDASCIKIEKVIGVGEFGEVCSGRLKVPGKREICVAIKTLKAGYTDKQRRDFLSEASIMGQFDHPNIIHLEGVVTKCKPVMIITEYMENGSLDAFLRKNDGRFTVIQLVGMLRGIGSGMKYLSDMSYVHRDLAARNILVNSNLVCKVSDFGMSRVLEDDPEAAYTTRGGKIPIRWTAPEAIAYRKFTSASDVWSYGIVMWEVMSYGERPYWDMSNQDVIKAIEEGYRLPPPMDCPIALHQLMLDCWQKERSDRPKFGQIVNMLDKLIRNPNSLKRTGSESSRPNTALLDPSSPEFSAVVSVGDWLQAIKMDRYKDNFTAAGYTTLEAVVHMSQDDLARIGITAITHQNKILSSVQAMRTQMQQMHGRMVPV

[12] = target: T4, Heat shock factor protein 1 (Mus musculus, UniProt P38532); assay: HSF1 potentiators in luciferase reporter cells, confirmation, cell-based, NIH3T3, luminescence, dose retest (AID 435004); assay type: functional;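 note: stress induced by proteasome inhibitor MG132 added 30 min after compound; luciferase reporter driven by HSF1 response element in NIH3T3 cells; actives raise luminescence as potentiators of the MG132 stress response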
T4 sequence (P38532 whole entry): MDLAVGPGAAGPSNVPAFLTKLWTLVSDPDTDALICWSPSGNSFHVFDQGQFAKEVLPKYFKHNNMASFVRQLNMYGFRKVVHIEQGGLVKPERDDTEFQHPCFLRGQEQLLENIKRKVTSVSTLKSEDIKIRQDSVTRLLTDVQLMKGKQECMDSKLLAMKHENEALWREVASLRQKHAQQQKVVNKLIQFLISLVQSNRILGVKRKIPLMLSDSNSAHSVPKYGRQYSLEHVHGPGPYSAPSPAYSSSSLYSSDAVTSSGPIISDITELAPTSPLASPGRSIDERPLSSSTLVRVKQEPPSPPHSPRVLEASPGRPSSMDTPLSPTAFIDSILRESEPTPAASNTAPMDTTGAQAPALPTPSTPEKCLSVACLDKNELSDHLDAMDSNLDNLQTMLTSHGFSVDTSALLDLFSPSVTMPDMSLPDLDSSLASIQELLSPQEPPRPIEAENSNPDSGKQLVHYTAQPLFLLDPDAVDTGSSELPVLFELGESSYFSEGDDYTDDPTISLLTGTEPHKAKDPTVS

[13] = cytotoxicity in KRAS-transformed pancreatic duct cells, primary screen, cell-based, fluorescence, HTS (AID 431); assay type: functional; details: Homo sapiens;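 note: cell line used: HPDE-C7K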
[14] = target: T3, Estrogen receptor beta; assay: ERβ–SRC-3 coactivator interaction inhibitors, confirmation, orthogonal assay, biochemical, ELISA, streptavidin-HRP readout (AID 1060)
[15] = target: Induced myeloid leukemia cell differentiation protein Mcl-1 (Homo sapiens, UniProt Q07820); assay type: functional
Sequence of Induced myeloid leukemia cell differentiation protein Mcl-1 (Q07820 whole entry): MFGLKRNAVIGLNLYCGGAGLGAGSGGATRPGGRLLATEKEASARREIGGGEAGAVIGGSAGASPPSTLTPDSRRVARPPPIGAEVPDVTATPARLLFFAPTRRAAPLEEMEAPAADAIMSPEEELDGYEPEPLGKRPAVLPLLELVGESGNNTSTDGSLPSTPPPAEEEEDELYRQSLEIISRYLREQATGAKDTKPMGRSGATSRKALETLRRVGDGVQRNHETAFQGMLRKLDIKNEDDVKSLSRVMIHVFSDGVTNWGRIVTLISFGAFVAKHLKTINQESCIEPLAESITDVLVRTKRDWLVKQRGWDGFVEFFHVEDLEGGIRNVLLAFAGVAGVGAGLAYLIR

[16] = cytotoxicity in HPDE-C7 cells, cell-based, fluorescence, HTS (AID 430); assay type: functional; details: Homo sapiens
[17] = THP-1 cell cytotoxicity, dose response, cytotoxicity control for Vif-APOBEC3G degradation inhibitor project, THP-1 cells (AID 1117359); assay type: functional; details: Human immunodeficiency virus 1, THP-1
[18] = target: Protein Tat (Human immunodeficiency virus type 1 group M subtype B (isolate HXB2)(HIV-1), UniProt P04608); assay type: functional;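 note: tat binding to TAR RNA read out by fluorescence polarization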
Sequence of Protein Tat (P04608 whole entry): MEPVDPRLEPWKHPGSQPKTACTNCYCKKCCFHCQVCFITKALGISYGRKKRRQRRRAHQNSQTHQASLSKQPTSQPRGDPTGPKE

[19] = Jurkat T cell cytotoxicity, dose response, cytotoxicity control for P. falciparum gametocyte viability project, luminescence (AID 1117277); assay type: functional, cell-based;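 note: potency reflects loss of cellular ATP meaning fewer viable cells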
[20] = P. falciparum late gametocyte killing, dose response, luminescence (AID 1117278); assay type: functional, cell-based;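 note: gametocytes exposed to compound for 24 hours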
[21] = target: NAD-dependent protein deacylase sirtuin-5, mitochondrial (Homo sapiens, UniProt Q9NXA8); assay: SIRT5 desuccinylase inhibitors, dose response, biochemical, fluorescence imaging, cherry-pick, set 5 (AID 720591);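 note: desuccinylation of succinyl peptide AMC substrate read as fluorescence after trypsin release; potency of inhibitors that lower fluorescence and may act on trypsin instead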
Sequence of NAD-dependent protein deacylase sirtuin-5, mitochondrial (Q9NXA8 whole entry): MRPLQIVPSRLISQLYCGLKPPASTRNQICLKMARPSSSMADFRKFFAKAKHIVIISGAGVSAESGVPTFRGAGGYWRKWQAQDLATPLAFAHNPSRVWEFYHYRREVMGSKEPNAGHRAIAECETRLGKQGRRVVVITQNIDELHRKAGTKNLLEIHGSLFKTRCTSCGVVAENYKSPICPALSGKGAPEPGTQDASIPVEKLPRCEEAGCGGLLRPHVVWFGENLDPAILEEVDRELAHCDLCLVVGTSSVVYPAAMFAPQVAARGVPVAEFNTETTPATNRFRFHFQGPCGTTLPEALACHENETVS

[22] = inhibitors of PGC1a acetylation in cells, dose response, cell-based, cherry-picked samples (AID 720514); assay type: functional;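 note: potency may reflect raised or lowered acetylation signal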
[23] = P. falciparum Dd2 growth inhibitors, dose response, SYBR Green, dry powder samples, set 9 (AID 1159568); assay type: functional, cell-based
[24] = A549 cell cytotoxicity, dose response, cytotoxicity control, plate reader, cherry-pick, antagonist series (AID 743412); assay type: functional, cell-based
[25] = HEK293 cell cytotoxicity, dose response, cytotoxicity control, plate reader, cherry-picked samples (AID 743446); assay type: functional, cell-based
[26] = HepG2 cell cytotoxicity, dose response, cytotoxicity control, plate reader, cherry-pick, antagonist series (AID 743416); assay type: functional, cell-based
[27] = test system: HT-1080; assay: cytotoxicity in HT1080 fibrosarcoma cells, cell-based, fluorescence readout (AID 620); assay type: functional; details: Homo sapiens
[28] = test system: BJ; assay: cytotoxicity toward BJ-TERT fibroblasts, dose response, cell-based, RAS-independent, luminescence (AID 1933); assay type: functional; details: Homo sapiens
[29] = MC4R antagonists, dose response, counter-screen for LGR2 antagonist project, cell-based, plate reader, cherry pick (AID 743444); assay type: functional;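 note: transfected HEK 293 cells stimulated with alpha-MSH peptide; potency of inhibitors of the alpha-MSH evoked signal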
[30] = test system: BJ; assay: cytotoxicity toward BJ-TERT-LT-ST fibroblasts, dose response, cell-based, RAS-independent, luminescence (AID 1935); assay type: functional; details: Homo sapiens;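 note: BJ fibroblasts immortalized with TERT plus LT and ST oncogenes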
[31] = target: T5, Oxysterols receptor LXR-beta (Homo sapiens, UniProt P55055); assay type: functional, cell-based;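 note: Cell-based luminescence dose-response assay of agonist activity at LXR, run as a confirmatory counterscreen to a daf-12 agonist screen; HEK293 cells with Gal4-LXR fusion and GAL4-driven luciferase reporter; agonist potency from rising luciferase signal of a Gal4-LXR reporter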
T5 sequence (P55055 whole entry): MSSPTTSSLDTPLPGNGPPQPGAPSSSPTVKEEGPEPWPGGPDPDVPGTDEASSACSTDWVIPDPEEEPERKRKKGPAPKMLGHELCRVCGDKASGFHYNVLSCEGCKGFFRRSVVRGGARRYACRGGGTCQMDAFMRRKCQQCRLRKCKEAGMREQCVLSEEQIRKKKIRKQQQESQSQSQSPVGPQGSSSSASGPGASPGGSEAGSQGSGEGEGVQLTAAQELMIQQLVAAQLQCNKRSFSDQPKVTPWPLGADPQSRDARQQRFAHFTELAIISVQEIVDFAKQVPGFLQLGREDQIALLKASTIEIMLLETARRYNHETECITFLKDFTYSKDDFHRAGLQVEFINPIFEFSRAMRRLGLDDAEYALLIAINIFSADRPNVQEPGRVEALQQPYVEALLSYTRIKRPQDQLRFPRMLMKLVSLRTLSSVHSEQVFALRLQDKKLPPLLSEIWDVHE

[32] = cells
[33] = test system: HEK293; assay: inhibitors of LMP1-driven NF-kB reporter, dose response, cell-based, HEK293, luciferase, cherry-pick (AID 588343); assay type: functional; details: Homo sapiens
[34] = cytotoxicity toward DRD oncogenic fibroblasts, dose response, cell-based, non-viral oncogenic, luminescence (AID 1934); assay type: functional; details: Homo sapiens
[35] = test system: BJ; assay: cells; assay type: functional, cell-based; details: Homo sapiens
[36] = LGR2 antagonists, dose response, cell-based, HEK293, CRE-luciferase reporter, cherry pick, set 2 (AID 743343); assay type: functional;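 note: transfected cells were stimulated with diluted bursicon conditioned medium after compound addition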

Sequence of Cytochrome P450 2C19 (P33261 whole entry): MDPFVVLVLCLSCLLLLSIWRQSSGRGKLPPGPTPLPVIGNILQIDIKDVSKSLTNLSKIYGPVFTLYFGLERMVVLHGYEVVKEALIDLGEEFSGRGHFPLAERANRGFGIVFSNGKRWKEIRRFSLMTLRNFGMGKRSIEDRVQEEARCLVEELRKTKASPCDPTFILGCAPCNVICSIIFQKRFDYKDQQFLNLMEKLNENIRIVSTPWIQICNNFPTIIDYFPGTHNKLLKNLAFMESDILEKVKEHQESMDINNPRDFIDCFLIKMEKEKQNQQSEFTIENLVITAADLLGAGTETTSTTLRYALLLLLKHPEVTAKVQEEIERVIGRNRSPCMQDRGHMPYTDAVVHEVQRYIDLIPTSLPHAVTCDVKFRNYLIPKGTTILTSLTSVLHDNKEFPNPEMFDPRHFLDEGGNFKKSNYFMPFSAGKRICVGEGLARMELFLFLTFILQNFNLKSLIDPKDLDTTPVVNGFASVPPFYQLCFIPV

O=C(O)c1sc2cc(C(F)(F)F)cnc2c1-c1ccccc1
AC50 [1]: 39.8 µM (inconclusive)
IC50 [2]: > 30 µM (not active)
AC50 [3]: 28.2 µM (inconclusive)

O=C1c2ccccc2C(=O)C1c1ccncc1
IC50 [4]: 18 µM (not active)

O=C(CNC(=O)c1ccc(Br)o1)Nc1cccc(-c2cnc3ccccc3n2)c1
IC50 [4]: 41.2 µM (not active)

C[C@@H](CN(C)C)CN1c2ccccc2Sc2ccccc21
IC50 [5]: > 33.3 µM (inactive)

CN1CCc2c(sc3c2C(=O)NC(c2cccs2)N3)C1 (stereo unspecified)
EC50 [6]: > 53 µM (inactive)
IC50 [7]: > 100 µM (not active)

COc1cc(C(Nc2ccccn2)c2ccc3ccc(C)nc3c2O)cc(OC)c1O (stereo unspecified)
IC50 [8]: 3.13 µM (active)
EC50 [9]: > 38 µM (not active)
EC50 [10]: 5.42 µM (inconclusive)
IC50 [11]: 2.02 µM (active)
EC50 [12]: 4.22 µM (active)
EC50 [13]: 4.83 µM (active)
IC50 [14]: > 109 µM (not active)
IC50 [15]: 786 nM (active)
EC50 [16]: 4.68 µM (active)

COc1ccc(S(=O)(=O)c2c(N)n(Cc3ccco3)c3nc4ccccc4nc23)cc1
CC50 [17]: > 40 µM (active)
IC50 [18]: 3.46 µM (inconclusive)

Cc1ccc(-c2csc3ncnc(S)c23)cc1
IC50 [19]: 76.2 µM (inactive)
IC50 [20]: > 109 µM (inactive)

CS(=O)(=O)N(CC(=O)N1CCCCC1)c1cccc(F)c1
AC50 [21]: 29.7 µM (active)

O=C(Nc1cc(S(=O)(=O)N2CCOCC2)ccc1Cl)c1cc([N+](=O)[O-])ccc1Cl
AC50 [22]: 13 µM (active)

O=C(Cc1cccc(NC(=O)C2CCCN(C(=O)C3CCCC3)C2)c1)Nc1cccc(C(=O)N2CCOCC2)c1 (stereo unspecified)
AC50 [21]: > 30 µM (inactive)

CCC(C(=O)NCc1cccnc1)c1ccccc1 (stereo unspecified)
IC50 [19]: > 83.2 µM (inactive)
IC50 [20]: > 109 µM (inactive)

C[C@@H]1CCCCO[C@@H](CN(C)S(=O)(=O)c2ccc(F)cc2)[C@@H](C)CN([C@H](C)CO)C(=O)c2cc(N(C)C)ccc2O1
AC50 [23]: 7.15 µM (active)

O=C(Nc1ccccc1F)N1CCCCN2[C@H](CO)[C@H](c3ccc(/C=C/c4ccccc4)cc3)[C@H]2C1
AC50 [23]: 1.6 µM (active)

COc1ccccc1-c1nc(-c2ccccn2)no1
AC50 [24]: 10.4 µM (active)
AC50 [25]: 10.7 µM (active)
AC50 [26]: 19.4 µM (active)
EC50 [27]: > 50 µM (not active)
EC50 [28]: 9.58 µM (active)
AC50 [29]: 2.05 µM (active)
EC50 [30]: > 150 µM (inconclusive)
EC50 [31]: > 67.5 µM (inactive)
EC50 [32]: > 67.5 µM (inactive)
AC50 [33]: 1.26 µM (active)
EC50 [34]: 7.2 µM (active)
EC50 [35]: 10.4 µM (active)
AC50 [36]: 3.35 µM (active)
